For assay [1], the system named is A549. In words: Cytotoxicity against human A549 cells assessed as decrease in cell viability by MTT assay. Type of assay: functional, cell-based. (Tetrazolium dyes change colour on reduction, which living cells bring about.)
Assay [2] relates to MOLT-4. Kind of assay: Cytotoxicity against human MOLT4 cells assessed as decrease in cell viability by MTT assay. Type of assay: functional, cell-based.
For assay [3], the system named is HeLa. Kind of assay: Cytotoxicity against human HeLa cells assessed as decrease in cell viability by MTT assay. Type of assay: functional, cell-based.
For assay [4], the system named is A549. Kind of assay: Induction of apoptosis in human A549 cells assessed as change in cell morphology at IC50 after 24 hrs by acridine orange/ethidium bromide staining-based fluorescence microscopic method. Type of assay: functional.
Assay [5] relates to MOLT-4. Kind of assay: Induction of apoptosis in human MOLT4 cells assessed as change in cell morphology at IC50 after 24 hrs by acridine orange/ethidium bromide staining-based fluorescence microscopic method. Type of assay: functional.
The test system of assay [6] is A549. In words: Induction of apoptosis in human A549 cells assessed as early apoptotic cells at IC50 after 24 hrs by annexin V-FITC/propidium iodide staining-based flow cytometric method (reference value: 0.93%). Type of assay: functional. (In general: In flow cytometry, cells or beads pass a laser one at a time.)
Assay [7] relates to A549. In words: Induction of apoptosis in human A549 cells assessed as late apoptotic cells at IC50 after 24 hrs by annexin V-FITC/propidium iodide staining-based flow cytometric method (reference value: 0.06%). Type of assay: functional.
Assay [8] has as its system A549. Kind of assay: Induction of apoptosis in human A549 cells assessed as necrotic cells at IC50 after 24 hrs by annexin V-FITC/propidium iodide staining-based flow cytometric method relative to control. Type of assay: functional.
Assay [9] has as its system A549. In words: Induction of apoptosis in human A549 cells assessed as viable cells at IC50 after 24 hrs by annexin V-FITC/propidium iodide staining-based flow cytometric method (reference value: 99.01%). Type of assay: functional.
In assay [10] the test system is MOLT-4. In words: Induction of apoptosis in human MOLT4 cells assessed as early apoptotic cells at IC50 after 24 hrs by annexin V-FITC/propidium iodide staining-based flow cytometric method (reference value: 2.18%). Type of assay: functional.
Assay [11] concerns MOLT-4. In words: Induction of apoptosis in human MOLT4 cells assessed as late apoptotic cells at IC50 after 24 hrs by annexin V-FITC/propidium iodide staining-based flow cytometric method (reference value: 0.02%). Type of assay: functional.
The subject of assay [12] is MOLT-4. Kind of assay: Induction of apoptosis in human MOLT4 cells assessed as necrotic cells at IC50 after 24 hrs by annexin V-FITC/propidium iodide staining-based flow cytometric method (reference value: 0.03%). Type of assay: functional.
Assay [13] has as its system MOLT-4. In words: Induction of apoptosis in human MOLT4 cells assessed as viable cells at IC50 after 24 hrs by annexin V-FITC/propidium iodide staining-based flow cytometric method (reference value: 97.78%). Type of assay: functional.

Calls of active or inactive are those of the source. The calls are words filed in the database; no cut-off is given here. Bounds are passed on as bounds.

In the case of `Fc1ccccc1Nc1ncnc2c1C(c1ccccc1)c1ccc3ccccc3c1O2` (configuration not stated), the IC50 (commonly the concentration that inhibits the measured activity by half) turned out to be 5.4 µM in [1], 12.8 µM in assay [2] and 10.3 µM in [3]. Also, the result in assay [4] and in assay [5] was Active. Also, the Activity worked out at 34.92% in assay [6], 2.72% in assay [7], 0.29% in assay [8] and 62.07% in [9].
With `CCc1ccc(Nc2ncnc3c2C(c2ccccc2)c2ccc4ccccc4c2O3)cc1` (configuration not stated), the IC50 in assay [1] came to 17.4 µM; in assay [2] it was 17.6 µM; in assay [3] it was 14.5 µM.
Consider `COc1ccc(OC)c(C2c3ccc4ccccc4c3Oc3ncnc(Nc4ccccc4F)c32)c1` (configuration not stated), for which the IC50 amounted to 6.3 µM in assay [1], 5.2 µM in assay [2] and 6.9 µM in [3]. The result in [4] and in [5] was Active. In addition, the Activity in assay [10] was found to be 47.03%; in assay [11], 43.61%; in assay [12], 1.18%; in assay [13], 8.18%.
As for `c1ccc(CNc2ncnc3c2C(c2ccccc2)c2ccc4ccccc4c2O3)cc1` (configuration not stated), the values for the IC50 in assay [1], in assay [2] and in assay [3] were 10.9 µM, 12.7 µM and 5.9 µM, respectively.
Turning to `COc1ccc(Nc2ncnc3c2C(c2cc(OC)c(OC)c(OC)c2)c2ccc4ccccc4c2O3)cc1` (configuration not stated), the IC50 was 46.5 µM in assay [1], 33.5 µM in assay [2] and more than 100 µM in assay [3].
Turning to `COc1cc(C2c3ccc4ccccc4c3Oc3ncnc(NCc4ccccc4Cl)c32)cc(OC)c1OC` (configuration not stated), the results for the IC50 in assay [1], in assay [2] and in [3] were 22.2 µM, 14.5 µM and 33.2 µM, respectively.
Regarding `Brc1ccc(Nc2ncnc3c2C(c2ccccc2)c2ccc4ccccc4c2O3)cc1` (configuration not stated), the IC50 was more than 100 µM in assay [1], 29.4 µM in assay [2] and 31.6 µM in [3].
Take `COc1cc(C2c3ccc4ccccc4c3Oc3ncnc(NCc4ccccc4)c32)cc(OC)c1OC` (configuration not stated): the IC50 in [1] was 26.5 µM; in [2] it was 10.4 µM; in [3] it was 44.6 µM.
As for `Clc1ccc(Nc2ncnc3c2C(c2ccccc2)c2ccc4ccccc4c2O3)cc1` (configuration not stated), the IC50 was 13.7 µM in [1], 16.4 µM in assay [2] and 19.9 µM in assay [3].
Take `COc1ccc(CCNc2ncnc3c2C(c2ccccc2)c2ccc4ccccc4c2O3)c(OC)c1` (configuration not stated): the IC50 was 18.9 µM in [1], 14.5 µM in assay [2] and 43.5 µM in assay [3].
As to `COc1ccc(OC)c(C2c3ccc4ccccc4c3Oc3ncnc(Nc4ccc(Cl)cc4)c32)c1` (configuration not stated), the values for the IC50 in assay [1], in assay [2] and in [3] were 14.8 µM, 7.4 µM and 15.9 µM, respectively.
For `COc1cc(C2c3ccc4ccccc4c3Oc3ncnc(Nc4ccccc4)c32)cc(OC)c1OC` (configuration not stated), in that order: 18.6 µM, 9.8 µM and 20.7 µM.
In the case of `COc1ccc(OC)c(C2c3ccc4ccccc4c3Oc3ncnc(Nc4ccc(Br)cc4)c32)c1` (configuration not stated), the IC50 came out at 26.8 µM in assay [1], 20.4 µM in [2] and 16.7 µM in assay [3].
For `c1ccc(CCNc2ncnc3c2C(c2ccccc2)c2ccc4ccccc4c2O3)cc1` (configuration not stated), the IC50 in assay [1] amounted to 68.5 µM; in [2] it was 16.9 µM; in [3], 50.2 µM.
Taken in the same sequence, the figures for `c1ccc(Nc2ncnc3c2C(c2ccccc2)c2ccc4ccccc4c2O3)cc1` (configuration not stated) were 12.5 µM, 6.6 µM and 6.4 µM.
For `Clc1ccccc1CNc1ncnc2c1C(c1ccccc1)c1ccc3ccccc3c1O2` (configuration not stated), in that order: 9.6 µM, 11.7 µM and 15.4 µM.
For `COc1ccc(Nc2ncnc3c2C(c2cc(OC)ccc2OC)c2ccc4ccccc4c2O3)cc1` (configuration not stated), in that order: 7.2 µM, 6.9 µM and 10.6 µM.
Consider `COc1ccc(OC)c(C2c3ccc4ccccc4c3Oc3ncnc(Nc4ccc(F)cc4)c32)c1` (configuration not stated), for which the results for the IC50 in [1], in assay [2] and in [3] were 8.4 µM, 6.8 µM and 10.5 µM, respectively.
On to `Cc1ccc(Nc2ncnc3c2C(c2ccccc2)c2ccc4ccccc4c2O3)c(C)c1` (configuration not stated), for which the IC50 came to 11.2 µM in assay [1], 8.9 µM in assay [2] and 14.6 µM in assay [3].
As for `COc1ccc(Nc2ncnc3c2C(c2ccccc2)c2ccc4ccccc4c2O3)c(OC)c1` (configuration not stated), the values for the IC50 in assay [1], in [2] and in [3] were 10.9 µM, 6.5 µM and 15.9 µM, respectively.

For the origin of these results see ChEMBL document CHEMBL3997780, “Facile synthesis and antiproliferative activity of 7H-benzo[7,8]chromeno[2,3-d]pyrimidin-8-amines” (Eur J Med Chem, 2017).
